According to ChEMBL document CHEMBL3286199, “Synthesis, in vitro antimicrobial and cytotoxic activities of novel pyrimidine-benzimidazol combinations” (Bioorg Med Chem Lett, 2014):
Values after ≈ are worked out from the molar mass of the structure shown.

Columns and labels:
PC-3 = assay: Cytotoxicity against human PC3 cells after 72 hrs by MTT assay; assay type: functional, cell-based; conditions: PC-3, 72 h
MGC-803 = assay: Cytotoxicity against human MGC803 cells after 72 hrs by MTT assay; assay type: functional, cell-based; conditions: MGC-803, 72 h
Escherichia coli = assay: Antimicrobial activity against Escherichia coli after 18 to 24 hrs by broth microdilution method; assay type: functional
MCF7 = assay: Cytotoxicity against human MCF7 cells after 72 hrs by MTT assay; assay type: functional, cell-based; conditions: MCF7, 72 h
Candida albicans = assay: Antimicrobial activity against Candida albicans after 48 hrs by broth microdilution method; assay type: functional
Bacillus subtilis = assay: Antimicrobial activity against Bacillus subtilis after 18 to 24 hrs by broth microdilution method; assay type: functional
[1] = Cytotoxicity against human EC109 cells after 72 hrs by MTT assay; assay type: functional, cell-based; conditions: ECa-109, 72 h
[2] = tested on: Stenotrophomonas maltophilia; assay: Antimicrobial activity against Stenotrophomonas maltophilia after 18 to 24 hrs by broth microdilution method; assay type: functional
Staphylococcus aureus = assay: Antimicrobial activity against Staphylococcus aureus after 18 to 24 hrs by broth microdilution method; assay type: functional

Compound | IC50 (PC-3) | IC50 (MGC-803) | MIC (Escherichia coli) | IC50 (MCF7) | MIC (Candida albicans) | MIC (Bacillus subtilis) | IC50 [1] | MIC [2] | MIC (Staphylococcus aureus)
Cc1cc(N2CCCCC2)nc(SCc2nc3ccccc3[nH]2)n1 | > 100 µM | > 100 µM | > 128 µg/mL | > 100 µM | 32 µg/mL (≈ 94.3 µM) | > 128 µg/mL | > 100 µM | 64 µg/mL (≈ 189 µM) | > 128 µg/mL
Cc1ccc(Nc2cc(C)nc(SCc3nc4ccccc4[nH]3)n2)cc1 | 56 µM | 7.39 µM | 32 µg/mL (≈ 88.5 µM) | 56.5 µM | 64 µg/mL (≈ 177 µM) | 64 µg/mL (≈ 177 µM) | 57.3 µM | 8 µg/mL (≈ 22.1 µM) | 32 µg/mL (≈ 88.5 µM)
Cc1cc(NNC(N)=S)nc(SCc2nc3ccccc3[nH]2)n1 | > 100 µM | > 100 µM | > 128 µg/mL | > 100 µM | 128 µg/mL (≈ 371 µM) | > 128 µg/mL | > 100 µM | 128 µg/mL (≈ 371 µM) | > 128 µg/mL
Cc1cc(NC(C)C)nc(SCc2nc3ccccc3[nH]2)n1 | > 100 µM | > 100 µM | > 128 µg/mL | > 100 µM | 128 µg/mL (≈ 408 µM) | > 128 µg/mL | > 100 µM | 32 µg/mL (≈ 102 µM) | > 128 µg/mL
O=c1[nH]cc(F)c(=O)[nH]1 [FLUOROURACIL] | 4.68 µM | 8.13 µM | – | 7.76 µM | – | – | 24.1 µM | – | –
OC(Cn1cncn1)(Cn1cncn1)c1ccc(F)cc1F [FLUCONAZOLE] | – | – | – | – | 2 µg/mL (≈ 6.53 µM) | – | – | – | –
Cc1cc(N2CCOCC2)nc(SCc2nc3ccccc3[nH]2)n1 | > 100 µM | > 100 µM | > 128 µg/mL | > 100 µM | > 128 µg/mL | > 128 µg/mL | > 100 µM | 32 µg/mL (≈ 93.7 µM) | > 128 µg/mL
C[C@H]1COc2c(N3CCN(C)CC3)c(F)cc3c(=O)c(C(=O)O)cn1c23.C[C@H]1COc2c(N3CCN(C)CC3)c(F)cc3c(=O)c(C(=O)O)cn1c23.O [LEVOFLOXACIN] | – | – | 0.125 µg/mL | – | – | 0.25 µg/mL | – | 0.25 µg/mL | 0.5 µg/mL
COc1ccccc1Nc1cc(C)nc(SCc2nc3ccccc3[nH]2)n1 | 70.8 µM | 56.2 µM | 32 µg/mL (≈ 84.8 µM) | > 100 µM | 128 µg/mL (≈ 339 µM) | 32 µg/mL (≈ 84.8 µM) | 34.4 µM | 8 µg/mL (≈ 21.2 µM) | > 128 µg/mL
Cc1cc(Nc2cccc(C(F)(F)F)c2)nc(SCc2nc3ccccc3[nH]2)n1 | > 100 µM | > 100 µM | > 128 µg/mL | > 100 µM | > 128 µg/mL | > 128 µg/mL | > 100 µM | 8 µg/mL (≈ 19.3 µM) | > 128 µg/mL
COc1ccc(Nc2cc(C)nc(SCc3nc4ccccc4[nH]3)n2)cc1 | 67.4 µM | 51.1 µM | 128 µg/mL (≈ 339 µM) | 61.1 µM | 64 µg/mL (≈ 170 µM) | 32 µg/mL (≈ 84.8 µM) | 69.8 µM | 16 µg/mL (≈ 42.4 µM) | 64 µg/mL (≈ 170 µM)
Cc1cc(Nc2ccc(Br)cc2)nc(SCc2nc3ccccc3[nH]2)n1 | 37.1 µM | 26.8 µM | 128 µg/mL (≈ 300 µM) | 38 µM | 8 µg/mL (≈ 18.8 µM) | 128 µg/mL (≈ 300 µM) | 42.9 µM | 4 µg/mL (≈ 9.38 µM) | 16 µg/mL (≈ 37.5 µM)
Cc1cc(Nc2ccc(F)cc2)nc(SCc2nc3ccccc3[nH]2)n1 | 56.2 µM | 5.77 µM | 64 µg/mL (≈ 175 µM) | 42.2 µM | 8 µg/mL (≈ 21.9 µM) | 64 µg/mL (≈ 175 µM) | 69.5 µM | 32 µg/mL (≈ 87.6 µM) | 32 µg/mL (≈ 87.6 µM)
Cc1cc(N2CCNCC2)nc(SCc2nc3ccccc3[nH]2)n1 | > 100 µM | > 100 µM | > 128 µg/mL | > 100 µM | > 128 µg/mL | 128 µg/mL (≈ 376 µM) | > 100 µM | 32 µg/mL (≈ 94 µM) | > 128 µg/mL
Cc1cc(N(C)Cc2ccccc2)nc(SCc2nc3ccccc3[nH]2)n1 | > 100 µM | 31.3 µM | > 128 µg/mL | > 100 µM | 128 µg/mL (≈ 341 µM) | > 128 µg/mL | > 100 µM | 16 µg/mL (≈ 42.6 µM) | 128 µg/mL (≈ 341 µM)
Cc1cc(NCCO)nc(SCc2nc3ccccc3[nH]2)n1 | > 100 µM | > 100 µM | 64 µg/mL (≈ 203 µM) | > 100 µM | > 128 µg/mL | > 128 µg/mL | > 100 µM | 64 µg/mL (≈ 203 µM) | > 128 µg/mL
Cc1cc(Nc2ccc(Cl)cc2)nc(SCc2nc3ccccc3[nH]2)n1 | 36 µM | 28.2 µM | 128 µg/mL (≈ 335 µM) | 33.6 µM | 64 µg/mL (≈ 168 µM) | 128 µg/mL (≈ 335 µM) | 20.4 µM | 2 µg/mL (≈ 5.24 µM) | 8 µg/mL (≈ 20.9 µM)
Cc1cc(N(CCO)CCO)nc(SCc2nc3ccccc3[nH]2)n1 | > 100 µM | > 100 µM | 64 µg/mL (≈ 178 µM) | > 100 µM | > 128 µg/mL | > 128 µg/mL | > 100 µM | 128 µg/mL (≈ 356 µM) | > 128 µg/mL
